# Laboratory results reported in patent US20020065225A1, “Methods of determining altered NDPK functions and the diagnosis of cystic fibrosis” (priority 1999, published 2002).
# Assays:
# Anx I [1] = assay: Anx I phosphorylation in murine tracheal epithelium membrane and cytosol with ATP+GDP; assay type: biochemical, mouse
# Source text: Cyclic AMP controls both the membrane aggregating and the cation channel properties of Anx I via a proposed cAMP binding site^20. Because cAMP-dependent fluid secretion^22 and vesicle trafficking^2,3,22 are both disordered in CF airway and annexins share significant homology with the region of CFTR (amino acids 500-529) bearing the common disease mutation^7, we speculated that annexins may be involved in CF. […] We observed an absence of a 37 kDa phosphoprotein in plasma membranes from the airway of a CF mouse model, Cftr^tm1cam, which expresses no CFTR (FIG. 6a, quantitation FIG. 6e). We confirmed the identity of murine p37 as Anx I by immunoprecipitating pre-phosphorylated [^32P]p37 from wild type membranes using antibodies against Anx I (FIG. 5c). […] Because Anx I is a membrane-associated protein which shuttles between membrane and cytosol^26, we studied Anx I phosphorylation in cytosol from wild-type and Cftr^tm1Cam. In the absence of GDP and in contrast to the membrane, we found no differences in Anx I phosphorylation between wild-type and Cftr^tm1Cam cytosol (FIG. 6b; quantitation f). We confirmed the identity of cytosolic p37 as Anx I by immunoprecipitating pre-phosphorylated [^32P]p37 as described above (data not shown). […] It is possible that the excess protein results from a compensatory increase in synthesis to overcome a disruption of function. Excess Anx I protein is consistent with the elevated plasma concentrations of the calcium-dependent annexin binding proteins (S100A8 and A9 or CF antigen) in both CF carriers and patients^27. S100 proteins form obligate dimers^6 which bring together the N termini of different Anx I monomers to promote membrane-membrane fusion.
# Swiss mice (wild-type) (6-10 weeks old) and mutant Cftr^tm1Cam mice^12 (4-12 weeks old) were used in this study. […]
# As described previously^15. […] Pre-stained molecular weight markers were used to avoid staining and destaining of gels prior to imaging and quantification. The incorporation of ^32PO4 into individual protein bands was detected using electronic autoradiography (Canberra-Packard Instant Imager).
# p37 (Anx I) = settings: cited from earlier work
# annexin I = assay: Inhibition of annexin I phosphorylation in a membrane preparation; assay type: biochemical
# Protocol: Following pre-incubation with N^6-monobutyryladenosine 3′:5′ cyclic monophosphate (N^6-mbcAMP) (0-1 mM) at 4° C. for 30 min, a membrane preparation was phosphorylated with γ[^32P] ATP at 37° C. for 5 min.
# As described previously^15. Phosphorylation and Electronic Autoradiography - Briefly, proteins were phosphorylated with either 37 kBq γ[^32P] ATP or GTP (final nucleotide concentration, 16 nM) in 10 mM MOPS pH 7.9 containing 5 mM DTT. The reaction was terminated by adding 5x Laemmli sample buffer (Laemmli (1970) Nature 227, 680-685) and the proteins separated by SDS-PAGE using 12.5% polyacrylamide gels. Pre-stained molecular weight markers were used to avoid staining and destaining of gels prior to imaging and quantification. The incorporation of ^32PO4 into individual protein bands was detected using electronic autoradiography (Canberra-Packard Instant Imager).
# Anx I [2] = assay: Nature of the phospho-linkage on ovine [32P]Anx I; assay type: biochemical; settings: data not shown
# Protocol: Previously, annexins have been reported, to be phosphorylated on serine and tyrosine residues within the N-terminus by PKC and EGF receptor kinase, respectively^18 but acid hydrolysis (6 N HCl at 105° C., 2 h) of ovine [^32P]Anx I. (labelled for 5 min) removed>95% of the radioactivity from p37 (Anx I) (data not shown). Further analysis confirmed that this phospho-linkage was not on serine, threonine or tyrosine residues because it was acid labile (FIG. 5e, lanes 1 and 3), base stable (FIG. 5e, lane 2) and inhabitable following pre-incubation with diethylpyrocarbamate (modifies histidine residues, data not shown). […] To our knowledge, this is the first report in annexins. […] Histidine phosphorylation may regulate the proposed functions of the core—cation channel permeation^20 and/or membrane fusion^6,8.
# As described previously^19. In order to determine the nature of the phosphate linkage on [^32-P]-annexin I, a membrane fraction was labelled with γ[^32P] GTP or γ[^32P] ATP for 5 min at 37° C. The reaction was terminated with 5x Laemmli sample buffer. Phosphorylated protein (10 μg) was then incubated at 30° C. for 10 min in reaction mixtures containing phosphorylation buffer alone, 0.1 N HCl (pH 1), 0.1 N NaOH (pH 13) or 0.8 M hydroxylamine-0.1 M acetate (pH 5.2). […]
# NDPK [3] = assay: Ovine CFTR peptide affinity column with ovine tracheal epithelial membrane proteins; assay type: binding, sheep; settings: for Western blot of eluate with antibodies specific to NDPK: eluate from ovine CFTR peptide column; for phosphorylated species in eluate of peptide column (SDS-PAGE, electronic autoradiography): ovine tracheal membrane proteins, eluate phosphorylated with γ[32P]ATP
# Protocol: (§1) We speculated that this part of CFTR would associate with protein(s) from the chloride-sensitive phosphorylation cascade. We constructed peptides corresponding to the CFTR region encompassing position 508 of human CFTR. Membrane proteins from wild-type human nasal epithelium were incubated with either of two peptides corresponding to the wild-type or the ΔF508 mutant form of CFTR (KENIIFGVSYDEYR or KENIIGVSYDEYR, respectively) linked to an affinity matrix (^18). […] In order to generate sufficient material to characterise the bound protein(s), this experiment was repeated using the equivalent ovine wild-type CFTR peptide (KDNIIFGVSYDEYR) and membrane proteins from ovine tracheal epithelia (^18) Proteins eluted from this peptide column were phosphorylated with γ[^32P]ATP and separated by SDS-PAGE. […] In contrast, the failure of membrane-delimited UTP production in CF does provide an additional rationale for the administration of UTP in this disease.
# (§2) 18. Human nasal epithetium: Apical membrane proteins from human nasal epithelium were solubilised at 4° C. (10 mM KOH, 0.1% Tween), dialysed against PBS-Tween containing protease inhibitors (3 h) and spun at 150 000 g for 1 h. The supernatant was then re-circulated over affinity supports containing either synthetic peptide KENIIFGVSYDEYR or KENIIGVSYDEYR, corresponding to the F508 region of wild-type or […] mutant CFTR, respectively. The columns were washed with PBS-Tween (0.1%) and eluted with 1M KI. Fractions (40×1 ml) were slot blotted onto nitrocellulose under vacuum. The blots were washed in buffer A (10 mM MOPS pH 7.9, 1 mM MgCl2, 0.05% Triton X-100, 1 mM ATP) for 10 min and subsequently labelled with 5 nM γ[^32P]ATP (specific activity 222 TBq/mmol) in buffer A (1 h at room temperature). The blots were finally washed with PBS-Tween (0.1%) for 30 min (6 buffer changes) and visualised using electronic autoradiography. Sheep tracheal epithelia. The pelleted membranes from sheep tracheal epithelia were solubilised with 0.1% glucopyranoside in 50 mM HEPES pH 7.4 on ice for 1 h and centrifuged at 100 000×g for 30 min. The supernatant was applied to a peptide affinity column (KDNIIFGVSYDEYRC, corresponding to the F508 region of ovine wild-type CFTR, coupled to epoxy activated POROS 20 media using the additional terminal cysteine residue). The column was washed with load buffer containing 1M NaCl, followed by load buffer only (100 column volumes or stable OD280˜0.015). Bound proteins were eluted with 50 mM glycine-NaOH pH 11 containing 0.1% glucopyranoside and immediately neutralised with 1M Tris-HCl pH 8.0.
# NDPK [4] = assay: Peptide-affinity column binding of human nasal membrane proteins, eluate labelled with [32P]ATP; settings: wild-type human nasal epithelium membrane proteins, eluate slot blots exposed to [32P]ATP
# Protocol: as §1
# as §2, with “The supernatant was applied to a peptide affinity column (KDNIIFGVSYDEYRC, corresponding to the F508 region of ovine wild-type CFTR, coupled to epoxy activated POROS 20 media using the additional terminal cysteine residue). The column was washed with load buffer containing 1M NaCl, followed by load buffer only (100 column volumes or stable OD280˜0.015). Bound proteins were eluted with 50 mM glycine-NaOH pH 11 containing 0.1% glucopyranoside and immediately neutralised with 1M Tris-HCl pH 8.0.” left out
compound,measurement,setting,value
Nc1nc2c(ncn2[C@@H]2O[C@H](COP(=O)(O)OP(=O)(O)O)[C@@H](O)[C@H]2O)c(=O)[nH]1 [GDP],"effect on Anx I phosphorylation, Cftr^tm1Cam cytosol","Anx I [1]; Cftr^tm1Cam cytosol, GDP added to γ[32P]ATP",partial restoration of Anx I phosphorylation
same,"effect on histidine phosphorylation of Anx I, Cftr^tm1Cam membranes","Anx I [1]; Cftr^tm1Cam membranes, ATP+GDP",failed to either restore or enhance
same,"effect on Anx I phosphorylation, wild type membranes","Anx I [1]; wild type murine membranes, γ[32P]ATP+GDP",enhancement was also observed
same,enhancement of phosphorylation of the 37 kDa protein,"p37 (Anx I); ATP (50 nM)+GDP (500 nM), 37° C., 5 min (ref 15)",20 fold
same,effect on p37 (Anx I) phosphorylation,p37 (Anx I); previously found (ref 15),enhanced
"CCCC(=O)Nc1ncnc2c1ncn2[C@@H]1O[C@@H]2COP(=O)(O)O[C@H]2[C@H]1O [N^6-mbcAMP, N^6-monobutyryladenosine 3′:5′ cyclic monophosphate]",concentration of maximal inhibition of (histidine) phosphorylation of annexin I,"annexin I; pre-incubation 0-1 mM, 4° C., 30 min, γ[32P]ATP 37° C., 5 min",1 mM
Nc1ncnc2c1ncn2[C@@H]1O[C@@H]2COP(=O)(O)O[C@H]2[C@H]1O [cyclic AMP],inhibition of p37 phosphorylation,annexin I; observed whilst characterising NDPK,inhibiton of p^37 phosphorylation
CCOC(=O)OC(=O)OCC [diethylpyrocarbamate],effect of pre-incubation on Anx I phospho-linkage,Anx I [2],inhabitable
KDNIIFGVSYDEYR [equivalent ovine wild-type CFTR peptide; coupled to the column via an additional terminal cysteine],Western blot of eluate with antibodies specific to NDPK,NDPK [3],"detected a 21 kDa protein, indicating the presence of NDPK"
same,Western blot of eluate with antibodies specific to NDPK,NDPK [3]; listed as ovine CFTR peptide,detected a 21 kDa protein
same,"phosphorylated species in eluate of peptide column (SDS-PAGE, electronic autoradiography)",NDPK [3],a 19/21 kDa doublet was the sole phosphorylated species in the eluate
same,"phosphorylated species in eluate of peptide column (SDS-PAGE, electronic autoradiography)",NDPK [3]; listed as ovine CFTR peptide,showed a 19/21 kDa phosphoprotein
KENIIFGVSYDEYR [synthetic peptide corresponding to the F508 region of wild-type human CFTR],phosphorylatable protein bound by and eluted from peptide-affinity column,NDPK [4],bound protein(s) that could be phosphorylated
same,phosphorylatable protein bound by and eluted from peptide-affinity column,NDPK [4]; listed as wild-type peptide,a phosphoprotein was observed in fraction 22
KENIIGVSYDEYR [synthetic peptide corresponding to the F508 region of ΔF508 mutant human CFTR],phosphorylatable protein bound by and eluted from peptide-affinity column,NDPK [4],No phosphorylation was observed
